Reference: patent publication US6750012B1, “Method of identifying a psychotropic agent using differential gene expression” (CuraGen Corporation, priority 1998, dated 2004)

Assays:
[1] = tested on: HALO1, novel gene fragment, 86 bp; test: GENECALLING differential gene expression, striatum of haloperidol-treated rats; assay type: in vivo, rat
Procedure: (§1) Accordingly, the differentially expressed genes were identified by treating Wistar rats with haloperidol (0.041 mg/kg/d for 3 days via continuous infusion Alza pump), or rats treated with vehicle only for 3 days.
(§2) Rats were then sacrificed, their brains were removed, and total RNA was recovered from the microdissected striatum. cDNA was prepared and the resulting samples were processed through 140 subsequences of GENECALLING™ differential expression analysis as described in U.S. Pat. No. 5,871,697 and in Shimkets et al., Nature Biotechnology 17:198-803 (1999).
(§3) 101 gene fragments were initially found to be differentially expressed in rat striatum in response to haloperidol. The differential expression of 50 of the gene fragments was confirmed using a unlabeled oligonucleotide competition assay as described in Shimkets et al., Nature Biotechnology 17:198-803. 32 single copy nucleic acid sequences genes and 5 repetitive copy nucleic acid sequences differentially expressed in haloperidol and vehicle treated striatum were selected for further analysis elements.

[2] = tested on: HALO10, novel gene fragment, 89% similar to human rab5c-like protein [U11293]; test: as above; assay type: in vivo, rat
Procedure: as §1, §2, §3

[3] = tested on: HALO11, novel gene fragment, 88% similar to human KIAA0383 gene [AB002381]; test: as above; assay type: in vivo, rat
Procedure: as §1, §2, §3

[4] = tested on: HALO13, novel gene fragment, 80% similar to human suilisol [L26247]; test: as above; assay type: in vivo, rat
Procedure: as §1, §2, §3

[5] = tested on: HALO16, novel gene fragment, 70% similar to E. coli putative ATP-dependent RNA helicase RHLB [P24229]; test: as above; assay type: in vivo, rat
Procedure: as §1, §2, §3

[6] = tested on: HALO17, novel gene fragment, 65% similarity to 5′ region of human NOF1 [U39400]; test: as above; assay type: in vivo, rat
Procedure: as §1, §2, §3

[7] = tested on: HALO18, novel gene fragment, encoded polypeptide 80% similar to human predicted protein DJ257A7.1 [AL008729]; test: as above; assay type: in vivo, rat
Procedure: as §1, §2, §3

[8] = tested on: HALO19, Ribosomal protein L18a [X14181]; test: as above; assay type: in vivo, rat
Procedure: as §1, §2, §3

[9] = tested on: HALO2, novel gene fragment, 121 bp; test: as above; assay type: in vivo, rat
Procedure: as §1, §2, §3

[10] = tested on: HALO20, Inositol 1.4.5-triphosphate 3-kinase [M29787]; test: as above; assay type: in vivo, rat
Procedure: as §1, §2, §3

[11] = tested on: HALO21, 2′-3′ cyclic nucleotide 3′ phosphodiesterase [CNPII] [L16532]; test: as above; assay type: in vivo, rat
Procedure: as §1, §2, §3

[12] = tested on: HALO22, NGFI-B [U17254]; test: as above; assay type: in vivo, rat
Procedure: as §1, §2, §3

[13] = tested on: HALO23, Neurogranin [L09119]; test: as above; assay type: in vivo, rat
Procedure: as §1, §2, §3

[14] = tested on: HALO24, V-1 protein; test: as above; assay type: in vivo, rat
Procedure: as §1, §2, §3

[15] = tested on: HALO25, 190 kDa ankyrin isoform; test: as above; assay type: in vivo, rat
Procedure: as §1, §2, §3

[16] = tested on: HALO26, Cathepsin S; test: as above; assay type: in vivo, rat
Procedure: as §1, §2, §3

[17] = tested on: HALO27, D-Amino acid oxidase; test: as above; assay type: in vivo, rat
Procedure: as §1, §2, §3

[18] = tested on: HALO28, Stomach nonmuscle Ca^+2 ATPase [J04023]; test: as above; assay type: in vivo, rat
Procedure: as §1, §2, §3

[19] = tested on: HALO33, NGF1-A; test: as above; assay type: in vivo, rat
Procedure: as §1, §2, §3

[20] = tested on: HALO34, JunB [X54686]; test: as above; assay type: in vivo, rat
Procedure: as §1, §2, §3

[21] = tested on: HALO35, Synaptophysin [p38]; test: as above; assay type: in vivo, rat; conditions: present studies
Procedure: as §1, §2, §3

[22] = tested on: HALO6, novel gene fragment, 95% similarity to mouse quaking gene type 1 [U44940]; test: as above; assay type: in vivo, rat
Procedure: as §1, §2, §3

[23] = tested on: HALO7, novel gene fragment, 86% similar to human U1 snRNP 70 kDa protein; test: as above; assay type: in vivo, rat
Procedure: as §1, §2, §3

[24] = tested on: HALO8, novel gene fragment, 91% similar to mouse phosphatidylinositol 3 kinase 110 kDa subunit [U03279]; test: as above; assay type: in vivo, rat
Procedure: as §1, §2, §3

[25] = tested on: HALO9, novel gene fragment, 98% similar to mouse meis2 [U57343]; test: as above; assay type: in vivo, rat
Procedure: as §1, §2, §3

[26] = tested on: L1 retrotransposon ORF2 (HALO29 in Table 1, HALO32 in text); test: as above; assay type: in vivo, rat
Procedure: as §1, §2, §3

[27] = tested on: L1 retrotransposon mIvi2-rn38 (HALO32 in Table 1, HALO31 in text); test: as above; assay type: in vivo, rat
Procedure: as §1, §2, §3

[28] = tested on: Long interspersed repetitive DNA containing 7 ORFs (HALO31 in Table 1, HALO30 in text); test: as above; assay type: in vivo, rat
Procedure: as §1, §2, §3

[29] = tested on: long interspersed repetitive DNA sequence LINE3 (HALO30 in Table 1, HALO29 in text); test: as above; assay type: in vivo, rat
Procedure: as §1, §2, §3

[30] = tested on: HALO12, rat novel gene fragment, 83% homologous to mouse EGF repeat transmembrane protein; test: as above; assay type: in vivo
Procedure: as §1, §2, §3

[31] = tested on: HALO14, novel gene fragment, 72% similar to rat repetitive ribosomal DNA II 3′ to 45S pre-rRNA [X02822]; test: as above; assay type: in vivo
Procedure: as §1, §2, §3

[32] = tested on: HALO15, novel gene fragment, 97% similar to mouse gene fragment with 44% amino acid similarity to human sorting nexin-2; test: as above; assay type: in vivo; conditions: Wistar rat striatum, 0.041 mg/kg/d for 3 days continuous infusion, vs vehicle
Procedure: as §1, §2, §3

[33] = tested on: HALO3, rat novel gene fragment, 495 bp; test: as above; assay type: in vivo; conditions: Wistar rat striatum, 0.041 mg/kg/d for 3 days continuous infusion, vs vehicle
Procedure: as §1, §2, §3

[34] = tested on: HALO4, novel gene fragment, 649 bp; test: as above; assay type: in vivo; conditions: Wistar rat striatum, 0.041 mg/kg/d for 3 days continuous infusion, vs vehicle
Procedure: as §1, §2, §3

[35] = tested on: HALO5, novel gene fragment, 539 bp; test: as above; assay type: in vivo; conditions: Wistar rat striatum, 0.041 mg/kg/d for 3 days continuous infusion, vs vehicle
Procedure: as §1, §2, §3

[36] = tested on: rats; test: Motor disturbances in rats treated for 28 days; assay type: in vivo, rat
[37] = tested on: Inisotaol monophsphates; conditions: 4-6 weeks following administration, decanoate dosing; cited from earlier work
[38] = tested on: sigma receptors; conditions: Seth et al, J Neurochem 70; cited from earlier work
[39] = Wistar rat striatum, 0.041 mg/kg/d for 3 days continuous infusion, vs vehicle
[40] = haloperidol-treated rats, striatum
[41] = haloperidol-treated rats, striatum, present studies

O=C(CCCN1CCC(O)(c2ccc(Cl)cc2)CC1)c1ccc(F)cc1 [haloperidol]
Haloperidol Effect on Transcript Level: HALO1 [1, 39]: −2.9 | HALO1 expression decreased [1, 40]: 2.9 fold | Haloperidol Effect on Transcript Level: HALO10 [2, 39]: −2.0 | HALO10 expression diminished [2, 40]: 2 fold | Haloperidol Effect on Transcript Level: HALO11 [3, 39]: −2.0 | HALO11 expression increased [3, 40]: 4 fold | Haloperidol Effect on Transcript Level: HALO13 [4, 39]: +6.3 | HALO13 expression increased [4, 40]: 6.3 fold | Haloperidol Effect on Transcript Level: HALO16 [5, 39]: −8 | HALO16 expression diminished [5, 40]: 8 fold | Haloperidol Effect on Transcript Level: HALO17 [6, 39]: −10 | HALO17 expression diminished [6, 40]: 10 fold | Haloperidol Effect on Transcript Level: HALO18 [7, 39]: −2.5 | HALO18 expression diminished [7, 40]: 2.5 fold | Haloperidol Effect on Transcript Level: HALO19 Ribosomal protein L18a [8, 39]: +1.8 | HALO19 (L18a) transcription increased [8, 40]: 1.8 fold | Haloperidol Effect on Transcript Level: HALO2 [9, 39]: −2 | HALO2 expression decreased [9, 40]: 2 fold | Haloperidol Effect on Transcript Level: HALO20 Inositol 1.4.5-triphosphate 3-kinase [10, 39]: +2 | HALO20 expression increased [10, 40]: 2 fold | Haloperidol Effect on Transcript Level: HALO21 CNPII [11, 39]: −3 | HALO21 (CNPII) expression decreases [11, 40]: 3.0 folf | Haloperidol Effect on Transcript Level: HALO22 NGFI-B [12, 39]: +2.4 | NGFI-B expression increased (under heading HALO22) [12, 40]: 2.4 fold | Haloperidol Effect on Transcript Level: HALO23 Neurogranin [13, 39]: +1.1 | HALO23 (neurogranin) expression increased [13, 40]: 1.1 fold | Haloperidol Effect on Transcript Level: HALO24 V-1 protein [14, 39]: −2.0 | HALO24 (V-1 protein) expression decreased [14, 40]: 2.0 fold | Haloperidol Effect on Transcript Level: HALO25 190 kDa ankyrin isoform [15, 39]: −2.0 | HALO25 (190 kDA ankyrin isoform) expression decreased [15, 40]: 2.0 fold | Haloperidol Effect on Transcript Level: HALO26 Cathepsin S [16, 39]: −1.7 | HALO26 (cathepsin S) expression decreased [16, 40]: 1.7 fold | Haloperidol Effect on Transcript Level: HALO27 D-Amino acid oxidase [17, 39]: −2.0 | HALO27 (D-amino acid oxidase) expression decreased [17, 40]: 2.0 fold | Haloperidol Effect on Transcript Level: HALO28 Stomach nonmuscle Ca^+2 ATPase [18, 39]: +2 | HALO28 (stomach nonmuscle Ca+2 ATPase) expression increased [18, 40]: 2 fold | Haloperidol Effect on Transcript Level: HALO33 NGF1-A [19, 39]: −3 | HALO33 (NGF1-A) expression increased [19, 41]: 1.6 fold | Haloperidol Effect on Transcript Level: HALO34 JunB [20, 39]: +4 | HALO34 (JunB) expression increased [20, 41]: 4 fold | HALO35 (synaptophysin) expression varied [21]: ~1 fold | Haloperidol Effect on Transcript Level: HALO6 [22, 39]: −2 | HALO6 expression decreased [22, 40]: 2 fold | Haloperidol Effect on Transcript Level: HALO7 [23, 39]: −1.7 | HALO7 expression diminished [23, 40]: 1.7 fold | Haloperidol Effect on Transcript Level: HALO8 [24, 39]: −2 | HALO8 expression diminished [24, 40]: 2 fold | Haloperidol Effect on Transcript Level: HALO9 [25, 39]: +1.6 | HALO9 expression increased [25, 40]: 1.6 fold | Haloperidol Effect on Transcript Level: HALO29 L1 retrotransposon ORF2 [26, 39]: −3.3 | L1 retrotransposon ORF2 expression decreases (text: HALO32) [26, 40]: 3.3 fold | Haloperidol Effect on Transcript Level: HALO32 L1 retrotransposon mIvi2-rn38 [27, 39]: −5.5 | L1 retrotransposon ml vi2-m38 expression decreases (text: HALO31) [27, 40]: 5.5 fold | Haloperidol Effect on Transcript Level: HALO31 Long interspersed repetitive DNA containing 7 ORFs [28, 39]: −3.5 | long interspersed repetitive DNA containing 7 ORF expression decreases (text: HALO30) [28, 40]: 3.5 fold | Haloperidol Effect on Transcript Level: HALO30 LINE3 [29, 39]: −5 | LINE3 expression decreases (text: HALO29) [29, 40]: 5 fold | Haloperidol Effect on Transcript Level: HALO12 [30, 39]: +3 | HALO12 expression increased [30, 40]: 3 fold | Haloperidol Effect on Transcript Level: HALO14 [31, 39]: −5 | HALO14 expression diminished [31, 40]: 5 fold | Haloperidol Effect on Transcript Level: HALO15 [32]: +1.0 | Haloperidol Effect on Transcript Level: HALO3 [33]: −2.5 | Haloperidol Effect on Transcript Level: HALO4 [34]: −3 | Haloperidol Effect on Transcript Level: HALO5 [35]: −1.5 | motor disturbances [36]: motor disturbances that parallel human pathology | Inositol monophosphates level [37]: decrease | binding activity with sigma receptors [38]: binding activity
